Experimental data as given in US10968178B2, “IP6K inhibitors” (TAKEDA PHARMACEUTICAL COMPANY LIMITED, priority 2017, dated 2021).

What was measured:
Assay type in all cases: biochemical
human IP6K2 = target: T1, human IP6K2 (Homo sapiens, UniProt Q9UHH9); assay: IP6K enzyme inhibitory assay (ADP-Glo Kinase Assay), human IP6K2; conditions: compound concentration 0.1 μM; read-out: ADP-Glo method inhibitory rate (%) human IP6K2
T1 construct: human IP6K2 (1-426) gene; GST; made in house; host or cells: Sf-9 insect cells
T1 sequence (Q9UHH9 1-426): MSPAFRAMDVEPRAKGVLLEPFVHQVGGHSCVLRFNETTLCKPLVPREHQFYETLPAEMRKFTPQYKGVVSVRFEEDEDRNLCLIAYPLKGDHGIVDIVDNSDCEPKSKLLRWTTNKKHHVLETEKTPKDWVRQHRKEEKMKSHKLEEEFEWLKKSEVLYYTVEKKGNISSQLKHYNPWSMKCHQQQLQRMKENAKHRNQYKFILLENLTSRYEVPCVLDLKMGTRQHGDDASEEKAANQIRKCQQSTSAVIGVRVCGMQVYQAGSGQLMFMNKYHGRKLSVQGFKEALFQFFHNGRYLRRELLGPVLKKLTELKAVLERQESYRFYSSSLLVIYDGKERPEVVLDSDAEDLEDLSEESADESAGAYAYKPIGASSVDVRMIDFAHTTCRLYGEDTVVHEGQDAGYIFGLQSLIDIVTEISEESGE
Method: (§1) IP6K Enzyme Inhibitory Assay
(§2) Human IP6K3 enzyme was prepared by transducing human IP6K3 (1-410) gene into BL21 (DE3) Escherichia coli and purifying by Ni-NTA (nickel-nitrilotriacetic acid) affinity column. […] The enzymes were used after preservation at −70° C. The IP6K enzyme inhibitory activity of the test compound was measured by the following experiment method and using ADP-Glo™ Kinase Assay (manufactured by Promega). A test compound diluted with an assay buffer (20 mM HEPES (pH 7.5), 6 mM MgCl2, 0.01% Tween-20, 1 mM DTT) was first added by 2 μL to a 384 well plate. […] The IP6K enzyme solution diluted with the assay buffer was added by 2 μL to start the enzyme reaction. Incubation was performed at room temperature for a given time (120 min for rat IP6K3 alone, 60 min for others). After incubation at room temperature, ADP-Glo solution prepared according to the protocol of Promega was added by 3 μL to the 384 well plate and reacted at room temperature for 30 min. Thereafter, Kinase-Detection solution was added by 6 μL to the 384 well plate and reacted at room temperature for 60 min. After the reaction, the luminescence intensity was measured by a plate reader Envision (manufactured by PerkinElmer).

human IP6K1 = target: T2, human IP6K1 (Homo sapiens, UniProt Q92551); assay: IP6K enzyme inhibitory assay (ADP-Glo Kinase Assay), human IP6K1; conditions: compound concentration 0.1 μM; read-out: ADP-Glo method inhibitory rate (%) human IP6K1
T2 construct: human IP6K1 (1-441) gene; GST; made in house; host or cells: Sf-9 insect cells
T2 sequence (Q92551 whole entry): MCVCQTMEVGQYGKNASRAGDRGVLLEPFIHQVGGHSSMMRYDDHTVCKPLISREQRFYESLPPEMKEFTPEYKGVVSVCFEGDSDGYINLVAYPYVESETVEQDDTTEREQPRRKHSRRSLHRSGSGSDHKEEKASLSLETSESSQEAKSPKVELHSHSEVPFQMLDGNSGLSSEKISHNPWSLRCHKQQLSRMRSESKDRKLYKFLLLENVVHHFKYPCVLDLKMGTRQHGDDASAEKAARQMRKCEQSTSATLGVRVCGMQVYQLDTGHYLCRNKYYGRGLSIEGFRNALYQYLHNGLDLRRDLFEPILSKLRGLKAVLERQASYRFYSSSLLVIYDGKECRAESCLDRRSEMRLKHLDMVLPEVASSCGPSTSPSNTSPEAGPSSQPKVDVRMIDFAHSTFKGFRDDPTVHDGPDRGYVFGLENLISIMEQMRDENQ
Method: as §1, §2

human IP6K3 = target: T3, human IP6K3 (Homo sapiens, UniProt Q96PC2); assay: IP6K enzyme inhibitory assay (ADP-Glo Kinase Assay), human IP6K3; conditions: compound concentration 0.1 μM; read-out: ADP-Glo method inhibitory rate (%) human IP6K3
T3 construct: human IP6K3 (1-410) gene; made in house; host or cells: BL21 (DE3) Escherichia coli
T3 sequence (Q96PC2 1-410): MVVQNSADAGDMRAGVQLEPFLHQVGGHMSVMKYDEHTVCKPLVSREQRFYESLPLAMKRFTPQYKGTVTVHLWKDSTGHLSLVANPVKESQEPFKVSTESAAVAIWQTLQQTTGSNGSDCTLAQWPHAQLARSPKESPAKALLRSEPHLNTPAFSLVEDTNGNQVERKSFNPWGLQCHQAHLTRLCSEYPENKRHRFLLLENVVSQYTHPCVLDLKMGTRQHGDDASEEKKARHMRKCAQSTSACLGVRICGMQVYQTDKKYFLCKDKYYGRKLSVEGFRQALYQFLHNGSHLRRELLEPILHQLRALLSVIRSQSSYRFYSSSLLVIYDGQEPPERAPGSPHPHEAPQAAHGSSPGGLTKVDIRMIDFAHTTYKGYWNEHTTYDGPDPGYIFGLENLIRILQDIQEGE
Method: as §1, §2

O=C(O)c1ccc2c(c1)[C@]1(CC[C@@H](Oc3cc(Cl)ccn3)CC1)C(=O)N2 [Example 23, (1r,4r)-4-((4-chloropyridin-2-yl)oxy)-2′-oxo-1′,2′-dihydrospiro[cyclohexane-1,3′-indole]-5′-carboxylic acid]
inhibition at 0.1 µM (human IP6K2): 79% | inhibition at 0.1 µM (human IP6K1): 72% | inhibition at 0.1 µM (human IP6K3): 92%

O=C(O)c1ccc2c(c1)[C@]1(CC[C@@H](Oc3ncccc3Cl)CC1)C(=O)N2 [Example 24, (1r,4r)-4-((3-chloropyridin-2-yl)oxy)-2′-oxo-1′,2′-dihydrospiro[cyclohexane-1,3′-indole]-5′-carboxylic acid]
inhibition at 0.1 µM (human IP6K2): 92% | inhibition at 0.1 µM (human IP6K1): 86% | inhibition at 0.1 µM (human IP6K3): 92%

O=C(O)c1ccc2c(c1)[C@]1(CC[C@@H](Oc3ccc(C(F)(F)F)cn3)CC1)C(=O)N2 [Example 25, (1r,4r)-2′-oxo-4-((5-(trifluoromethyl)pyridin-2-yl)oxy)-1′,2′-dihydrospiro[cyclohexane-1,3′-indole]-5′-carboxylic acid]
inhibition at 0.1 µM (human IP6K2): 97% | inhibition at 0.1 µM (human IP6K1): 95% | inhibition at 0.1 µM (human IP6K3): 98%

Cc1ccc(C(F)(F)F)c(O[C@H]2CC[C@@]3(CC2)C(=O)Nc2ccc(C(=O)O)cc23)n1 [Example 26]
inhibition at 0.1 µM (human IP6K2): 97% | inhibition at 0.1 µM (human IP6K1): 98% | inhibition at 0.1 µM (human IP6K3): 92%

O=C(O)c1ccc2c(c1)[C@]1(CC[C@@H](Oc3ncc(C(F)(F)F)cc3F)CC1)C(=O)N2 [Example 27, (1r,4r)-4-((3-fluoro-5-(trifluoromethyl)pyridin-2-yl)oxy)-2′-oxo-1′,2′-dihydrospiro[cyclohexane-1,3′-indole]-5′-carboxylic acid]
inhibition at 0.1 µM (human IP6K2): 93% | inhibition at 0.1 µM (human IP6K1): 97% | inhibition at 0.1 µM (human IP6K3): 96%

O=C(O)c1ccc2c(c1)[C@]1(CC[C@@H](Oc3ncc(Cl)cc3C(F)(F)F)CC1)C(=O)N2 [Example 28, (1r,4r)-4-((5-chloro-3-(trifluoromethyl)pyridin-2-yl)oxy)-2′-oxo-1′,2′-dihydrospiro[cyclohexane-1,3′-indole]-5′-carboxylic acid]
inhibition at 0.1 µM (human IP6K2): 98% | inhibition at 0.1 µM (human IP6K1): 95% | inhibition at 0.1 µM (human IP6K3): 96%

O=C(O)c1ccc2c(c1)[C@]1(CC[C@@H](Oc3ncc(C(F)(F)F)cc3Cl)CC1)C(=O)N2 [Example 29, (1r,4r)-4-((3-chloro-5-(trifluoromethyl)pyridin-2-yl)oxy)-2′-oxo-1′,2′-dihydrospiro[cyclohexane-1,3′-indole]-5′-carboxylic acid]
inhibition at 0.1 µM (human IP6K2): 96% | inhibition at 0.1 µM (human IP6K1): 99% | inhibition at 0.1 µM (human IP6K3): 99%

O=C(O)c1ccc2c(c1)[C@]1(CC[C@@H](Oc3cc(OCc4ccccc4)ccn3)CC1)C(=O)N2 [Example 30, (1r,4r)-4-((4-(benzyloxy)pyridin-2-yl)oxy)-2′-oxo-1′,2′-dihydrospiro[cyclohexane-1,3′-indole]-5′-carboxylic acid]
inhibition at 0.1 µM (human IP6K2): 84% | inhibition at 0.1 µM (human IP6K1): 81% | inhibition at 0.1 µM (human IP6K3): 97%

O=C(O)c1ccc2c(c1)[C@]1(CC[C@@H](Oc3ncc(C4CC4)cc3C(F)(F)F)CC1)C(=O)N2 [Example 31, (1r,4r)-4-((5-cyclopropyl-3-(trifluoromethyl)pyridin-2-yl)oxy)-2′-oxo-1′,2′-dihydrospiro[cyclohexane-1,3′-indole]-5′-carboxylic acid]
inhibition at 0.1 µM (human IP6K2): 101% | inhibition at 0.1 µM (human IP6K1): 101% | inhibition at 0.1 µM (human IP6K3): 100%

Cc1ncccc1O[C@H]1CC[C@@]2(CC1)C(=O)Nc1ccc(C(=O)O)cc12 [Example 32, (1r,4r)-4-((2-methylpyridin-3-yl)oxy)-2′-oxo-1′,2′-dihydrospiro[cyclohexane-1,3′-indole]-5′-carboxylic acid]
inhibition at 0.1 µM (human IP6K2): 67% | inhibition at 0.1 µM (human IP6K1): 63% | inhibition at 0.1 µM (human IP6K3): 88%

Cc1cncc(O[C@H]2CC[C@@]3(CC2)C(=O)Nc2ccc(C(=O)O)cc23)c1 [Example 33, (1r,4r)-4-((5-methylpyridin-3-yl)oxy)-2′-oxo-1′,2′-dihydrospiro[cyclohexane-1,3′-indole]-5′-carboxylic acid]
inhibition at 0.1 µM (human IP6K2): 40% | inhibition at 0.1 µM (human IP6K1): 37% | inhibition at 0.1 µM (human IP6K3): 74%

Cc1ccc(O[C@H]2CC[C@@]3(CC2)C(=O)Nc2ccc(C(=O)O)cc23)cn1 [Example 34, (1r,4r)-4-((6-methylpyridin-3-yl)oxy)-2′-oxo-1′,2′-dihydrospiro[cyclohexane-1,3′-indole]-5′-carboxylic acid]
inhibition at 0.1 µM (human IP6K2): 76% | inhibition at 0.1 µM (human IP6K1): 63% | inhibition at 0.1 µM (human IP6K3): 91%

Cc1ccc(O[C@H]2CC[C@@]3(CC2)C(=O)Nc2ccc(C(=O)O)cc23)c(C)n1 [Example 35, (1r,4r)-4-((2,6-dimethylpyridin-3-yl)oxy)-2′-oxo-1′,2′-dihydrospiro[cyclohexane-1,3′-indole]-5′-carboxylic acid]
inhibition at 0.1 µM (human IP6K2): 96% | inhibition at 0.1 µM (human IP6K1): 82% | inhibition at 0.1 µM (human IP6K3): 98%

Cc1cc(C)c(O[C@H]2CC[C@@]3(CC2)C(=O)Nc2ccc(C(=O)O)cc23)cn1 [Example 36, (1r,4r)-4-((4,6-dimethylpyridin-3-yl)oxy)-2′-oxo-1′,2′-dihydrospiro[cyclohexane-1,3′-indole]-5′-carboxylic acid]
inhibition at 0.1 µM (human IP6K2): 92% | inhibition at 0.1 µM (human IP6K1): 72% | inhibition at 0.1 µM (human IP6K3): 95%

O=C(O)c1ccc2c(c1)[C@]1(CC[C@@H](Oc3cnc4c(c3)CCCO4)CC1)C(=O)N2 [Example 37, (1r,4r)-4-(3,4-dihydro-2H-pyrano[2,3-b]pyridin-6-yloxy)-2′-oxo-1′,2′-dihydrospiro[cyclohexane-1,3′-indole]-5′-carboxylic acid]
inhibition at 0.1 µM (human IP6K2): 50% | inhibition at 0.1 µM (human IP6K1): 51% | inhibition at 0.1 µM (human IP6K3): 82%

Cc1cc(C)nc(O[C@H]2CC[C@@]3(CC2)C(=O)Nc2ccc(C(=O)O)cc23)n1 [Example 38, (1r,4r)-4-((4,6-dimethylpyrimidin-2-yl)oxy)-2′-oxo-1′,2′-dihydrospiro[cyclohexane-1,3′-indole]-5′-carboxylic acid]
inhibition at 0.1 µM (human IP6K2): 47% | inhibition at 0.1 µM (human IP6K1): 55% | inhibition at 0.1 µM (human IP6K3): 86%

Cc1nc(O[C@H]2CC[C@@]3(CC2)C(=O)Nc2ccc(C(=O)O)cc23)nc(C)c1Cl [Example 39, (1r,4r)-4-((5-chloro-4,6-dimethylpyrimidin-2-yl)oxy)-2′-oxo-1′,2′-dihydrospiro[cyclohexane-1,3′-indole]-5′-carboxylic acid]
inhibition at 0.1 µM (human IP6K2): 74% | inhibition at 0.1 µM (human IP6K1): 80% | inhibition at 0.1 µM (human IP6K3): 95%

Cc1cc(O[C@H]2CC[C@@]3(CC2)C(=O)Nc2ccc(C(=O)O)cc23)nc(C)n1 [Example 40, (1r,4r)-4-((2,6-dimethylpyrimidin-4-yl)oxy)-2′-oxo-1′,2′-dihydrospiro[cyclohexane-1,3′-indole]-5′-carboxylic acid]
inhibition at 0.1 µM (human IP6K2): 18% | inhibition at 0.1 µM (human IP6K1): 14% | inhibition at 0.1 µM (human IP6K3): 49%

Cc1ccccc1O[C@H]1CC[C@@]2(CC1)C(=O)Nc1ccc(C(=O)O)cc12 [Example 41, (1r,4r)-4-(2-methylphenoxy)-2′-oxo-1′,2′-dihydrospiro[cyclohexane-1,3′-indole]-5′-carboxylic acid]
inhibition at 0.1 µM (human IP6K2): 93% | inhibition at 0.1 µM (human IP6K1): 93% | inhibition at 0.1 µM (human IP6K3): 98%

Cc1cccc(O[C@H]2CC[C@@]3(CC2)C(=O)Nc2ccc(C(=O)O)cc23)c1 [Example 42, (1r,4r)-4-(3-methylphenoxy)-2′-oxo-1′,2′-dihydrospiro[cyclohexane-1,3′-indole]-5′-carboxylic acid]
inhibition at 0.1 µM (human IP6K2): 90% | inhibition at 0.1 µM (human IP6K1): 81% | inhibition at 0.1 µM (human IP6K3): 97%
